Measured values: patent US20210045385A1, “PYRIDAZINONE-SUBSTITUTED KETOXIMES AS HERBICIDES” (FMC Corporation, priority 2018, published 2021)

Tests used:
Assay type in all cases: in vivo
[1] = system: rice (Oryza sativa); assay: Test B flooded paddy test, visual plant response rating; settings: 250 g ai/ha, Flood, applied to paddy water, 2-leaf stage, evaluated after 13 to 15 days
In short: (§1)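 Rice, umbrella sedge, ducksalad and barnyardgrass grown to 2-leaf stage; pots flooded 3 cm above soil and compound applied directly to paddy water, depth maintained.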

[2] = system: ducksalad (Heteranhera limosa); assay: as above; settings: 250 g ai/ha, Flood, applied to paddy water, 2-leaf stage, evaluated after 13 to 15 days
In short: as §1

[3] = system: sedge, umbrella (small-flower umbrella sedge, Cyperus difformis); assay: as above; settings: 250 g ai/ha, Flood, applied to paddy water, 2-leaf stage, evaluated after 13 to 15 days
In short: as §1

[4] = system: barnyardgrass (Echinochloa crus-galli); assay: as above; settings: 250 g ai/ha, Flood, applied to paddy water, 2-leaf stage, evaluated after 13 to 15 days
In short: as §1

[5] = system: Italian ryegrass (Lolium multiflorum); assay: Test A postemergence, visual plant response rating
In short: (§2)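 Formulated in a non-phytotoxic solvent mixture including surfactant, each test chemical was sprayed onto the soil surface after sowing, or onto seedlings 2 to 10 cm high. Roughly 10 days later, plants were compared with untreated controls and rated for injury from 0 (no effect) to 100 (complete control).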

[6] = system: kochia (Kochia scoparia); assay: Test A postemergence, visual plant response rating
In short: as §2

[7] = system: galium (catchweed bedstraw, Galium aparine); assay: Test A postemergence, visual plant response rating
In short: as §2

[8] = system: blackgrass (Alopecurus myosuroides); assay: Test A postemergence, visual plant response rating
In short: as §2

[9] = system: corn (Zea mays); assay: Test A postemergence, visual plant response rating
In short: as §2

[10] = system: foxtail, giant (giant foxtail, Setaria faberii); assay: Test A postemergence, visual plant response rating
In short: as §2

[11] = system: ragweed (common ragweed, Ambrosia elatior); assay: Test A postemergence, visual plant response rating
In short: as §2

[12] = system: barnyardgrass (Echinochloa crus-galli); assay: Test A postemergence, visual plant response rating
In short: as §2

[13] = system: wheat (Triticum aestivum); assay: Test A postemergence, visual plant response rating
In short: as §2

[14] = system: pigweed (Amaranthus retroflexus); assay: Test A postemergence, visual plant response rating
In short: as §2

[15] = system: Italian ryegrass (Lolium multiflorum); assay: Test A preemergence, visual plant response rating
In short: as §2

[16] = system: kochia (Kochia scoparia); assay: Test A preemergence, visual plant response rating
In short: as §2

[17] = system: foxtail, giant (giant foxtail, Setaria faberii); assay: Test A preemergence, visual plant response rating
In short: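 Ratings 0–100 (100 = complete control), visual, vs untreated controls at ~10 days. Application pre- or postemergence; solvent mixture with surfactant; loam/sand medium.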

[18] = system: ragweed (common ragweed, Ambrosia elatior); assay: Test A preemergence, visual plant response rating
In short: as §2

[19] = system: barnyardgrass (Echinochloa crus-galli); assay: Test A preemergence, visual plant response rating
In short: as §2

[20] = system: pigweed (Amaranthus retroflexus); assay: Test A preemergence, visual plant response rating
In short: as §2

[21] = 500 g ai/ha, postemergence, 0 is no effect, 100 is complete control
[22] = Postemergence, 125 g ai/ha, 0 to 100 scale (0 no effect, 100 complete control)
[23] = 125 g ai/ha, preemergence, 0 to 100 scale, 0 no effect, 100 complete control
[24] = 500 g ai/ha Preemergence, approx. 10 days

For CO/N=C(\c1ccc(C)o1)c1c(O)c(C)nn(C)c1=O [Compound 53], the “Plant response rating, Rice (0 to 100 scale, 0 is no effect, 100 is complete control)” value [1] was 0, the “Plant response rating, Ducksalad (0 to 100 scale, 0 is no effect, 100 is complete control)” value [2] was 0 and the “Plant response rating, Sedge, Umbrella (0 to 100 scale, 0 is no effect, 100 is complete control)” value [3] was 0. For the same molecule, the “Plant response rating, Barnyardgrass (0 to 100 scale, 0 is no effect, 100 is complete control)” value [4] was 0, the “Ryegrass, Italian plant response rating (0 to 100 scale)” value [5, 21] was 90 and the “Ryegrass, Italian plant response rating” value [5, 22] was 20. For the same molecule, the “Kochia plant response rating (0 to 100 scale)” value [6, 21] was 0, the “Kochia plant response rating” value [6, 22] was 0 and the “Galium plant response rating (0 to 100 scale)” value [7, 21] was 0. The “Galium plant response rating” value [7, 22] was 0, the “Blackgrass plant response rating (0 to 100 scale)” value [8, 21] was 40 and the “Blackgrass plant response rating” value [8, 22] was 10. The “Corn plant response rating (0 to 100 scale)” value [9, 21] was 30, the “Corn plant response rating” value [9, 22] was 0 and the “Foxtail, Giant plant response rating (0 to 100 scale)” value [10, 21] was 90. The “Foxtail, Giant plant response rating” value [10, 22] was 10, the “Ragweed plant response rating (0 to 100 scale)” value [11, 21] was 0 and the “Ragweed plant response rating” value [11, 22] was 0. For the same molecule, the “Barnyardgrass plant response rating (0 to 100 scale)” value [12, 21] was 70, the “Barnyardgrass plant response rating” value [12, 22] was 10 and the “Wheat plant response rating (0 to 100 scale)” value [13, 21] was 0. The “Wheat plant response rating” value [13, 22] was 0, the “Pigweed plant response rating (0 to 100 scale)” value [14, 21] was 0 and the “Pigweed plant response rating” value [14, 22] was 0. The “Ryegrass, Italian plant response rating” value [15, 23] was 0, the “Ryegrass, Italian plant response rating (0 to 100 scale)” value [15, 24] was 0 and the “Kochia plant response rating” value [16, 23] was 0. For the same molecule, the “Kochia plant response rating (0 to 100 scale)” value [16, 24] was 0, the “Foxtail, Giant plant response rating” value [17, 23] was 0 and the “Foxtail, Giant plant response rating (0 to 100 scale)” value [17, 24] was 0. The “Ragweed plant response rating” value [18, 23] was 0, the “Ragweed plant response rating (0 to 100 scale)” value [18, 24] was 0 and the “Barnyardgrass plant response rating” value [19, 23] was 0. For the same molecule, the “Barnyardgrass plant response rating (0 to 100 scale)” value [19, 24] was 0, the “Pigweed plant response rating” value [20, 23] was 0 and the “Pigweed plant response rating (0 to 100 scale)” value [20, 24] was 0.
